Source: patent publication US7381723B2, “Azabicyclylmethyl derivatives of 7,8-dihydro-1,6,9,-trioxa-3-aza-cyclopenta[a]naphthalene as 5-HT1A antagonists” (Wyeth, priority 2001, dated 2008)

Columns and labels:
human 5-HT1A receptors = target: T1, human 5-HT1A receptors (Homo sapiens, UniProt P08908); assay: [3H] 8-OH-DPAT displacement from 5-HT1A receptor (CHO cells); type: binding; conditions: displacement of [3H] 8-OH-DPAT, CHO cells stably transfected with human 5-HT1A; read-out: 5-HT1A Receptor Affinity KI
T1 construct: expressed in transfected cells; host or cells: CHO cells
T1 sequence (P08908 1-422): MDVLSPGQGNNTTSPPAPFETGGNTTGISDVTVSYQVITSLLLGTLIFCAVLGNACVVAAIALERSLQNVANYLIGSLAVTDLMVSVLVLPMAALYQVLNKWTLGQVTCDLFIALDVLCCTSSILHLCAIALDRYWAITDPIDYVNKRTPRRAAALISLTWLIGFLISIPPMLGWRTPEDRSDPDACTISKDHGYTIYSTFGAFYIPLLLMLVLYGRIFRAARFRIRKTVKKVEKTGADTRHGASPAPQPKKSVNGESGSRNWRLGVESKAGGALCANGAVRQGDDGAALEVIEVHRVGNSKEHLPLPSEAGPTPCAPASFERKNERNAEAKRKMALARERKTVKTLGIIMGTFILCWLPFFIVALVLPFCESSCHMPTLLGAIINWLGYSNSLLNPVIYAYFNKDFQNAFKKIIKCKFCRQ
Description: High affinity for the serotonin 5-HT1A receptor was established by testing the claimed compound's ability to displace [^3H] 8-OH-DPAT (dipropylaminotetralin) from the 5-HT1A serotonin receptor following a modification of the procedure of Hall et al., J. Neurochem. 44, 1685 (1985) which utilizes CHO cells stably transfected with human 5-HT1A receptors.

[1] = target: T2, cloned human 5-HT1A receptors (Homo sapiens, UniProt P08908); assay: 35S-GTPγS binding assay, antagonist activity versus 8-OH-DPAT; type: biochemical; conditions: reversal of 8-OH-DPAT effect on 35S-GTPγS binding; for IC50: read-out: 5-HT1A Function IC50
T2 construct: expressed in transfected cells
T2 sequence (P08908 1-422): T1 sequence (P08908 1-422)
Method: Antagonist activity at 5-HT1A receptors was established by using a ^35S-GTPγS binding assay similar to that used by Lazareno and Birdsall (Br. J. Pharmacol. 109: 1120, 1993), in which the test compound's ability to affect the binding of ^35S-GTPγS to membranes containing cloned human 5-HT1A receptors was determined. Agonists produce an increase in binding whereas antagonists produce no increase but rather reverse the effects of the standard agonist 8-OH-DPAT. The test compound's maximum inhibitory effect is represented as the Imax, while its potency is defined by the IC50.

**Q.** With `Cc1nc2ccc3c(c2o1)OC(CN1C2CCC1CC(O)(c1cccc(C(F)(F)F)c1)C2)CO3` (stereo not drawn) [Example 2, 8-{[2-Methyl-7,8-dihydro[1,4]dioxino[2,3-g][1,3]benzoxazol-8-yl]methyl}-3-[3-(trifluoromethyl)phenyl]-8-azabicyclo[3.2.1]octan-3-ol] as the compound, how does the Ki (human 5-HT1A receptors) read?
**A.** 0.77 nM

**Q.** What about the melting point of the same compound?
**A.** 148 to 150 °C

**Q.** For `Cc1nc2ccc3c(c2o1)OC(CN1C2CCC1CC(O)(c1ccccc1)C2)CO3` (stereo not drawn) [Example 1, 8-{[2-Methyl-7,8-dihydro[1,4]dioxino[2,3-g][1,3]benzoxazol-8-yl]methyl}-3-phenyl-8-azabicyclo[3.2.1]octan-3-ol], which Ki (human 5-HT1A receptors) is on record?
**A.** 0.54 nM

**Q.** And the “5-HT1A Function Imax (maximum inhibitory effect)” value [1]?
**A.** 76%

**Q.** And the IC50 [1]?
**A.** 53 nM

**Q.** What about the melting point of the same compound?
**A.** 203 to 205 °C

**Q.** For `Cc1nc2ccc3c(c2o1)OC(CN1C2CCC1CC(O)(c1ccc4ccccc4c1)C2)CO3` (stereo not drawn) [Example 3, 8-{[2-Methyl-7,8-dihydro[1,4]dioxino[2,3-g][1,3]benzoxazol-8-yl]methyl}-3-(2-naphthyl)-8-azabicyclo[3.2.1]octan-3-ol], which Ki (human 5-HT1A receptors) is on record?
**A.** 3.71 nM

**Q.** And the “5-HT1A Function Imax (maximum inhibitory effect)” value [1]?
**A.** 95%

**Q.** What about the IC50 [1] of the same compound?
**A.** 27 nM
